Test results published in PubChem BioAssay AID248 (DTP/NCI, 2004).
“And” between values parts separate entries of the source, which are not always exact repeats. Equal entries are not always repeated. Inconclusive results and toxic doses are left out. No stated cut-off is given here; in the data, active means T/C of 150% or more; inactive means T/C below 125%.

Test system: L1210 leukemia ip in BDF1 mice, survival T/C
Experiment: NCI In Vivo Anticancer Drug Screen. Data for tumor model L1210 Leukemia (intraperitoneal) in B6D2F1 (BDF1) mice
Details: endpoint: mean survival time, higher = longer survival
In short: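 Transplantable tumor model; survival measured in treated vs vehicle control mice. Value = treated/control.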

[1] = dose: 6.25 mg/kg/injection, schedule: Q01DX009 (ip), vehicle: saline
[2] = dose: 12.5 mg/kg/injection, schedule: Q01DX009 (ip), vehicle: saline
[3] = dose: 12.5 mg/kg/injection, schedule: Q04DX003 (ip), vehicle: saline
[4] = dose: 25.0 mg/kg/injection, schedule: Q01DX009 (ip), vehicle: saline
[5] = dose: 25.0 mg/kg/injection, schedule: Q04DX003 (ip), vehicle: saline
[6] = dose: 50.0 mg/kg/injection, schedule: Q01DX009 (ip), vehicle: saline with Tween-80
[7] = dose: 50.0 mg/kg/injection, schedule: Q01DX009 (ip), vehicle: Klucel (hydroxypropylcellulose) (HPC)
[8] = dose: 100.0 mg/kg/injection, schedule: Q01DX009 (ip), vehicle: Klucel (hydroxypropylcellulose) (HPC)
[9] = dose: 100.0 mg/kg/injection, schedule: Q04DX003 (ip), vehicle: saline with Tween-80
[10] = dose: 200.0 mg/kg/injection, schedule: Q04DX003 (ip), vehicle: saline with Tween-80
[11] = dose: 400.0 mg/kg/injection, schedule: Q04DX003 (ip), vehicle: saline with Tween-80
[12] = dose: 50.0 mg/kg/injection, schedule: Q01DX009 (ip), vehicle: saline
[13] = dose: 100.0 mg/kg/injection, schedule: Q01DX001 (ip), vehicle: saline
[14] = dose: 100.0 mg/kg/injection, schedule: Q01DX009 (ip), vehicle: saline
[15] = dose: 200.0 mg/kg/injection, schedule: Q01DX001 (ip), vehicle: saline
[16] = dose: 200.0 mg/kg/injection, schedule: Q01DX009 (ip), vehicle: saline
[17] = dose: 400.0 mg/kg/injection, schedule: Q01DX001 (ip), vehicle: saline
[18] = dose: 100.0 mg/kg/injection, schedule: Q01DX009 (ip), vehicle: other

Measured: T/C

Fc1ccc([P+]2(c3ccc(F)cc3)C=C(c3ccccc3)[P+](c3ccc(F)cc3)(c3ccc(F)cc3)C=C2c2ccccc2)cc1
inactive: dose: 12.5 mg/kg/injection, schedule: Q01DX001 (ip), vehicle: saline with Tween-80 100 % of control | dose: 25.0 mg/kg/injection, schedule: Q01DX001 (ip), vehicle: saline with Tween-80 98 % of control | dose: 50.0 mg/kg/injection, schedule: Q01DX001 (ip), vehicle: saline with Tween-80 100 % of control

O=C(Cn1ccc(=O)[nH]c1=O)Nc1nccs1
inactive: [1] 102 % of control | [2] 104 % of control | [3] 122 % of control | [4] 103 % of control | [5] 95 % of control

Nc1nc(N)c2nc(CNCCc3ccccc3)cnc2n1
inactive: dose: 20.0 mg/kg/injection, schedule: Q01DX009 (ip), vehicle: Klucel (hydroxypropylcellulose) (HPC) 100 % of control | dose: 40.0 mg/kg/injection, schedule: Q01DX009 (ip), vehicle: Klucel (hydroxypropylcellulose) (HPC) 102 % of control

O=c1[nH]n(-c2ccccc2)c(=O)cc1Cl
inactive: [6] 97 % of control | dose: 100.0 mg/kg/injection, schedule: Q01DX009 (ip), vehicle: saline with Tween-80 89 % of control | dose: 200.0 mg/kg/injection, schedule: Q01DX009 (ip), vehicle: saline with Tween-80 86 % of control

Cc1cccc(C)c1-n1nnnc1N
inactive: [7] 105 % of control | [8] 119 % of control | dose: 200.0 mg/kg/injection, schedule: Q01DX009 (ip), vehicle: Klucel (hydroxypropylcellulose) (HPC) 101 % of control

CC(C)CCCC(C)CCCC(C)CCCCC(C)CCCC(C)CCCC(C)C (centres undefined)
inactive: dose: 100.0 mg/kg/injection, schedule: Q04DX002 (ip), vehicle: Klucel (hydroxypropylcellulose) (HPC) 103 % of control | dose: 200.0 mg/kg/injection, schedule: Q04DX002 (ip), vehicle: Klucel (hydroxypropylcellulose) (HPC) 106 % of control | dose: 400.0 mg/kg/injection, schedule: Q04DX002 (ip), vehicle: Klucel (hydroxypropylcellulose) (HPC) 109 % of control

C[CH2][Sn]([CH2]C)([CH2]C)[NH]S(=O)(=O)c1ccc(C)cc1
inactive: dose: 3.12 mg/kg/injection, schedule: Q01DX009 (ip), vehicle: saline with Tween-80 92 % of control | [3] 106 % of control

Cc1ccc(OCC(O)CN2CCN(c3ccc(Cl)cc3)CC2)cc1 (centres undefined)
inactive: dose: 63.0 mg/kg/injection, schedule: Q01DX015 (ip), vehicle: carboxymethylcellulose (CMC) 95 % of control | [9] 91 % of control | dose: 125.0 mg/kg/injection, schedule: Q01DX015 (ip), vehicle: carboxymethylcellulose (CMC) 95 % of control | [10] 94 % of control | dose: 250.0 mg/kg/injection, schedule: Q01DX015 (ip), vehicle: carboxymethylcellulose (CMC) 95 % of control | [11] 89 % of control | dose: 500.0 mg/kg/injection, schedule: Q01DX015 (ip), vehicle: carboxymethylcellulose (CMC) 91 % of control | dose: 1000.0 mg/kg/injection, schedule: Q01DX015 (ip), vehicle: carboxymethylcellulose (CMC) 95 % of control

ClCC1COC(CCl)O1 (centres undefined)
inactive: dose: 55.0 mg/kg/injection, schedule: Q01DX Z (ip), vehicle: saline 101 % of control | dose: 83.0 mg/kg/injection, schedule: Q01DX Z (ip), vehicle: saline 95 % of control | dose: 125.0 mg/kg/injection, schedule: Q01DX Z (ip), vehicle: saline 97 % of control

O=C(O)C(O)C(O)C(O)CO.[Zn+2] (centres undefined)
inactive: dose: 6.25 mg/kg/injection, schedule: Q01DX009 (ip), vehicle: saline with Tween-80 95 % of control | dose: 6.25 mg/kg/injection, schedule: Q04DX002 (ip), vehicle: saline with Tween-80 124 % of control | dose: 12.5 mg/kg/injection, schedule: Q01DX009 (ip), vehicle: saline with Tween-80 105 % of control and 100 % of control | dose: 12.5 mg/kg/injection, schedule: Q04DX002 (ip), vehicle: saline with Tween-80 109 % of control | dose: 25.0 mg/kg/injection, schedule: Q01DX009 (ip), vehicle: saline with Tween-80 91 % of control | dose: 25.0 mg/kg/injection, schedule: Q04DX002 (ip), vehicle: saline with Tween-80 95 % of control | [6] 91 % of control

CCC1(C)NC(=O)NC1=O (centres undefined)
inactive: [12] 100 % of control | [13] 112 % of control | [14] 98 % of control | dose: 100.0 mg/kg/injection, schedule: Q04DX003 (ip), vehicle: saline 106 % of control | [15] 102 % of control | [16] 111 % of control | dose: 200.0 mg/kg/injection, schedule: Q04DX003 (ip), vehicle: saline 101 % of control | [17] 100 % of control | dose: 400.0 mg/kg/injection, schedule: Q01DX009 (ip), vehicle: saline 109 % of control | dose: 400.0 mg/kg/injection, schedule: Q04DX003 (ip), vehicle: saline 101 % of control

COc1cc(C(C)=O)cc(OC)c1Oc1cc(OC)c(OC)c(OC)c1C(C)=O
inactive: [9] 95 % of control | [10] 97 % of control | [11] 101 % of control

CC#CC#C/C=C1/C=CC(=O)O1
inactive: [1] 98 % of control | dose: 6.25 mg/kg/injection, schedule: Q04DX003 (ip), vehicle: saline 96 % of control | [2] 105 % of control | [3] 103 % of control | [4] 94 % of control | [5] 91 % of control

O=C(O)/C=C/C(=O)Nc1cc(Cl)cc2c1-c1c(Cl)cc(Cl)cc1C2=O
inactive: [12] 94 % of control | [14] 94 % of control | dose: 100.0 mg/kg/injection, schedule: Q04DX003 (ip), vehicle: Klucel (hydroxypropylcellulose) (HPC) 98 % of control | [16] 96 % of control | dose: 200.0 mg/kg/injection, schedule: Q04DX003 (ip), vehicle: Klucel (hydroxypropylcellulose) (HPC) 98 % of control

C=C1C(=O)OC2C(=O)OC(CCCCCCCC)C12 (centres undefined)
inactive: dose: 6.2 mg/kg/injection, schedule: Q04DX002 (ip), vehicle: Klucel (hydroxypropylcellulose) (HPC) 97 % of control | dose: 12.5 mg/kg/injection, schedule: Q04DX002 (ip), vehicle: Klucel (hydroxypropylcellulose) (HPC) 94 % of control | dose: 25.0 mg/kg/injection, schedule: Q04DX002 (ip), vehicle: Klucel (hydroxypropylcellulose) (HPC) 97 % of control and 104 % of control

Cc1ccc(S(=O)(=O)N2CCC=Cc3ccccc32)cc1
inactive: dose: 100.0 mg/kg/injection, schedule: Q01DX001 (ip), vehicle: carboxymethylcellulose (CMC) 110 % of control | dose: 200.0 mg/kg/injection, schedule: Q01DX001 (ip), vehicle: carboxymethylcellulose (CMC) 102 % of control | dose: 400.0 mg/kg/injection, schedule: Q01DX001 (ip), vehicle: carboxymethylcellulose (CMC) 107 % of control

CCNC(C)(C)C(SSSC(c1ccc(Cl)cc1)C(C)(C)NCC)c1ccc(Cl)cc1 (centres undefined)
inactive: [7] 94 % of control | [8] 91 % of control | [18] 89 % of control

O=C1C=CC(=O)C2C3c4ccccc4C(c4ccccc43)C12 (centres undefined)
inactive: dose: 100.0 mg/kg/injection, schedule: Q01DX001 (ip), vehicle: saline with Tween-80 93 % of control | dose: 100.0 mg/kg/injection, schedule: Q04DX002 (ip), vehicle: saline 93 % of control | dose: 200.0 mg/kg/injection, schedule: Q01DX001 (ip), vehicle: saline with Tween-80 108 % of control | dose: 200.0 mg/kg/injection, schedule: Q04DX002 (ip), vehicle: saline 101 % of control | dose: 400.0 mg/kg/injection, schedule: Q01DX001 (ip), vehicle: saline with Tween-80 100 % of control | dose: 400.0 mg/kg/injection, schedule: Q04DX002 (ip), vehicle: saline 90 % of control

COc1ccc(OC(=O)Nc2cccc(C(C)=O)c2)cc1
inactive: [18] 106 % of control | dose: 200.0 mg/kg/injection, schedule: Q01DX009 (ip), vehicle: other 89 % of control | dose: 400.0 mg/kg/injection, schedule: Q01DX009 (ip), vehicle: other 101 % of control

CC(=O)OCC1OC(OC(C)=O)C(NS(=O)(=O)c2ccc(C)cc2)C(OC(C)=O)C1OC(C)=O (centres undefined)
inactive: [13] 102 % of control | [15] 104 % of control | [17] 102 % of control

O=C1C(c2ccccc2)=S=C2Sc3ccccc3N12
inactive: [8] 90 % of control

CC(C1CCCCC1)C(C#N)C(=O)NC(N)=O (centres undefined)
inactive: dose: 50.0 mg/kg/injection, schedule: Q01DX001 (ip), vehicle: saline 97 % of control | [13] 92 % of control | [15] 95 % of control | [17] 90 % of control
